From article PMC11521309, “A novel 4-aminoquinoline chemotype with multistage antimalarial activity and lack of cross-resistance with PfCRT and PfMDR1 mutants” (PLOS Pathogens, 2024)
Several values for one entry are separate records, joined by “and”; a condition that tells them apart may be missing. Equal values may be shown once. Read-outs that look alike come from different tables or passages of the source.

Legend:
[1] = system: P. berghei ookinete formation; assay: In vitro inhibition of ookinete formation (nLuc conversion assay), 24 h; assay type: cell-based, Plasmodium berghei; settings: Plasmodium berghei; for activity at 10 µM: read-out: % Inhibition of ookinete conversion, 10 uM; for activity at 25 µM: read-out: % Inhibition of ookinete conversion, 25 uM; for activity at 100 µM: read-out: % Inhibition of ookinete conversion, 100 uM
Protocol: To measure the inhibition of gamete conversion into ookinetes, a mutant luciferase-expressing P. berghei line (nLuc) was intraperitoneally injected into BALB/c mice. After 3–4 days, gametocyte-carrying blood samples were collected. In vitro compound testing was carried out by exposing 4 μL of infected blood mixed with 80 μL of culture medium (RPMI-1640 supplemented with 25 mM HEPES, 50 mg/L hypoxanthine, and 1% penicillin/streptomycin/neomycin at pH 8.3) to a range of drug concentrations for 24 hours at 21°C. Following the incubation, 20 μL of nLuc substrate (Nano-Glo Luciferase Assay System, Promega) was added to each well, and luminescence was measured in a luminometer. Increased light emission correlated with nLuc production and subsequent luciferase activity due to in vitro fertilization and ookinete conversion, as luciferase expression in this parasite line is regulated by the CTRP promoter that is ookinete-specific. Conversion inhibition was calculated as the percentage of luciferase activity of drug-exposed wells relative to untreated ones, from which IC50 values were interpolated.

[2] = system: Hz formation in ABS P. falciparum 3D7 parasites; assay: Cellular heme fractionation assay; assay type: cell-based, Plasmodium falciparum
Protocol: A heme fractionation assay was used to measure the inhibition of Hz formation in cultured ABS P. falciparum 3D7 parasites as previously described. […] Late trophozoites were harvested after 32 hours of incubation by lysing RBCs with 0.05% saponin followed by multiple washes with 1 × PBS (pH 7.5) to remove any residual traces of hemoglobin. The parasite pellet was resuspended in PBS and the total number of trophozoites isolated was quantified using flow cytometry. Contents of the trophozoite pellet were released by hypotonic lysis and sonication. After centrifugation, treatments with HEPES buffer (pH 7.4), sodium dodecyl sulfate, pyridine, and NaOH, allowed us to separate the fractions corresponding to the different heme species of interest. A microplate reader was employed to measure the UV-visible spectrum of each heme fraction as a Fe(III)heme-pyridine complex. Fractions of undigested hemoglobin, “free” heme, and Hz were quantified using a heme standard curve based on the mass of each heme-Fe species per mature trophozoite (fg/cell), obtained by dividing the total amount of each heme species by the corresponding number of parasites in that fraction as determined by flow cytometry. Statistical comparisons and analyses for trends employed Students’ t-tests (GraphPad Prism version 9).

[3] = single replicates, Control = 100
[4] = 0.5x IC50, 32 h, single replicates
[5] = 0.5–3.0 × IC50 vs untreated control
[6] = 1x IC50, 32 h, single replicates
[7] = 2x IC50, 32 h, single replicates
[8] = 2.5x IC50, 32 h, single replicates
[9] = 3x IC50, 32 h, single replicates

CCN(CC)CCCC(C)Nc1ccnc2cc(Cl)ccc12 (stereo not drawn) [CQ, chloroquine]
activity at 10 µM ([1]; Mean, Control mean 96.63): 43.2% | activity at 10 µM [1, 3]: 38.1% | activity at 25 µM ([1]; Mean, Control mean 96.63): 14.4% | activity at 25 µM [1, 3]: 12.7% | activity at 50 µM ([1]; read-out: % Inhibition of ookinete conversion, 50 uM, Mean, Control mean 96.63): 0.49% | activity at 100 µM ([1]; Mean, Control mean 96.63): 0.22% | activity at 100 µM [1, 3]: 0.2% | inhibition at 10 µM ([1]; read-out: inhibition of zygote conversion into ookinetes): 56.7% | %Hb ([2]; 0.5x IC50, 32 h, Mean): 3.19% | %Hemozoin ([2]; 0.5x IC50, 32 h, Mean): 88.03% | Hb Fe (fg/troph) ([2]; 0.5x IC50, 32 h, Mean): 1.79 fg/troph | Heme Fe (fg/troph) ([2]; 0.5x IC50, 32 h, Mean): 4.89 fg/troph | Hemozoin Fe (fg/troph) ([2]; 0.5x IC50, 32 h, Mean): 48.61 fg/troph | Total Fe (fg/troph) ([2]; 0.5x IC50, 32 h, Mean): 57.03 fg/troph | %Hb [2, 4]: 3.1577% and 3.5151% and 3.0401% and 3.0419% | %Heme [2, 4]: 10.1984% and 8.3472% and 8.0733% and 8.4973% | %Hemozoin [2, 4]: 86.6439% and 88.1377% and 88.8867% and 88.4608% | Hb Fe (fg/troph) [2, 4]: 1.6883 fg/troph and 1.9552 fg/troph and 1.7265 fg/troph and 1.8935 fg/troph | Heme Fe (fg/troph) [2, 4]: 5.4527 fg/troph and 4.6429 fg/troph and 4.5850 fg/troph and 5.2894 fg/troph | Hemozoin Fe (fg/troph) [2, 4]: 46.3251 fg/troph and 49.0239 fg/troph and 50.4811 fg/troph and 55.0658 fg/troph | Total Fe (fg/troph) [2, 4]: 53.47 fg/troph and 55.62 fg/troph and 56.79 fg/troph and 62.25 fg/troph | effect on Hz levels [2, 5]: Hz levels only decreased significantly from 2 × IC50 | effect on undigested Hb [2, 5]: significant at 2.5 × IC50 of CQ only | effect on “free” heme [2, 5]: significant increase in “free” heme starting at 0.5 × IC50 | %Hb ([2]; 1x IC50, 32 h, Mean): 3.14% | %Hemozoin ([2]; 1x IC50, 32 h, Mean): 88.13% | Hb Fe (fg/troph) ([2]; 1x IC50, 32 h, Mean): 1.74 fg/troph | Heme Fe (fg/troph) ([2]; 1x IC50, 32 h, Mean): 5.05 fg/troph | Hemozoin Fe (fg/troph) ([2]; 1x IC50, 32 h, Mean): 48.59 fg/troph | Total Fe (fg/troph) ([2]; 1x IC50, 32 h, Mean): 56.08 fg/troph | %Hb [2, 6]: 2.4393% and 3.8543% and 3.1547% and 3.1175% | %Heme [2, 6]: 10.2450% and 7.2686% and 7.4306% | %Hemozoin [2, 6]: 87.3158% and 86.1923% and 89.5767% and 89.4519% | Hb Fe (fg/troph) [2, 6]: 1.3251 fg/troph and 2.0733 fg/troph and 1.8303 fg/troph and 1.8137 fg/troph | Heme Fe (fg/troph) [2, 6]: 5.5654 fg/troph and 5.3541 fg/troph and 4.2171 fg/troph and 4.3229 fg/troph | Hemozoin Fe (fg/troph) [2, 6]: 47.4331 fg/troph and 46.3642 fg/troph and 51.9709 fg/troph and 52.0405 fg/troph | Total Fe (fg/troph) [2, 6]: 54.32 fg/troph and 53.79 fg/troph and 58.02 fg/troph and 58.18 fg/troph | %Hb ([2]; 2x IC50, 32 h, Mean): 3.51% | %Hemozoin ([2]; 2x IC50, 32 h, Mean): 87.00% | Hb Fe (fg/troph) ([2]; 2x IC50, 32 h, Mean): 1.98 fg/troph | Heme Fe (fg/troph) ([2]; 2x IC50, 32 h, Mean): 5.58 fg/troph | Hemozoin Fe (fg/troph) ([2]; 2x IC50, 32 h, Mean): 48.43 fg/troph | Total Fe (fg/troph) ([2]; 2x IC50, 32 h, Mean): 56.59 fg/troph | %Hb [2, 7]: 3.5841% and 3.0885% and 3.9396% and 3.4358% | %Heme [2, 7]: 10.5037% and 10.6360% and 8.0922% | %Hemozoin [2, 7]: 85.9123% and 86.2755% and 87.3313% and 88.4720% | Hb Fe (fg/troph) [2, 7]: 2.0351 fg/troph and 1.7333 fg/troph and 2.1697 fg/troph and 2.0058 fg/troph | Heme Fe (fg/troph) [2, 7]: 5.9641 fg/troph and 5.9691 fg/troph and 4.8074 fg/troph and 4.7243 fg/troph | Hemozoin Fe (fg/troph) [2, 7]: 48.7818 fg/troph and 48.4187 fg/troph and 48.0959 fg/troph and 51.6502 fg/troph | Total Fe (fg/troph) [2, 7]: 56.78 fg/troph and 56.12 fg/troph and 55.07 fg/troph and 58.38 fg/troph | %Hb ([2]; 2.5x IC50, 32 h, Mean): 4.73% | %Heme ([2]; 2.5x IC50, 32 h, Mean): 10.26% | %Hemozoin ([2]; 2.5x IC50, 32 h, Mean): 85.01% | Hb Fe (fg/troph) ([2]; 2.5x IC50, 32 h, Mean): 2.72 fg/troph | Heme Fe (fg/troph) ([2]; 2.5x IC50, 32 h, Mean): 5.95 fg/troph | Hemozoin Fe (fg/troph) ([2]; 2.5x IC50, 32 h, Mean): 47.56 fg/troph | Total Fe (fg/troph) ([2]; 2.5x IC50, 32 h, Mean): 56.58 fg/troph | %Hb [2, 8]: 4.8862% and 4.8721% and 4.7430% and 4.4317% | %Heme [2, 8]: 10.8743% and 11.0956% | %Hemozoin [2, 8]: 84.2395% and 85.3413% and 84.1614% and 86.2810% | Hb Fe (fg/troph) [2, 8]: 2.8007 fg/troph and 2.7933 fg/troph and 2.5619 fg/troph and 2.5547 fg/troph | Heme Fe (fg/troph) [2, 8]: 6.2331 fg/troph and 5.6110 fg/troph and 5.9933 fg/troph and 5.3538 fg/troph | Hemozoin Fe (fg/troph) [2, 8]: 48.2856 fg/troph and 48.9290 fg/troph and 45.4601 fg/troph and 49.7378 fg/troph | Total Fe (fg/troph) [2, 8]: 57.32 fg/troph and 57.33 fg/troph and 54.02 fg/troph and 57.65 fg/troph | %Hb ([2]; 3x IC50, 32 h, Mean): 3.75% | %Heme ([2]; 3x IC50, 32 h, Mean): 14.98% | %Hemozoin ([2]; 3x IC50, 32 h, Mean): 81.27% | Hb Fe (fg/troph) ([2]; 3x IC50, 32 h, Mean): 2.01 fg/troph | Heme Fe (fg/troph) ([2]; 3x IC50, 32 h, Mean): 8.01 fg/troph | Hemozoin Fe (fg/troph) ([2]; 3x IC50, 32 h, Mean): 43.26 fg/troph | Total Fe (fg/troph) ([2]; 3x IC50, 32 h, Mean): 56.94 fg/troph | %Hb [2, 9]: 2.5119% and 4.3346% and 4.4230% and 3.7332% | %Heme [2, 9]: 15.7024% and 13.7857% and 15.6412% and 14.7736% | %Hemozoin [2, 9]: 81.7857% and 81.8796% and 79.9358% and 81.4933% | Hb Fe (fg/troph) [2, 9]: 1.3141 fg/troph and 2.3188 fg/troph and 2.3892 fg/troph and 2.5358 fg/troph | Heme Fe (fg/troph) [2, 9]: 8.2149 fg/troph and 7.3747 fg/troph and 8.4490 fg/troph and 10.0350 fg/troph | Hemozoin Fe (fg/troph) [2, 9]: 42.7874 fg/troph and 43.8015 fg/troph and 43.1792 fg/troph and 55.3544 fg/troph | Total Fe (fg/troph) [2, 9]: 52.32 fg/troph and 53.50 fg/troph and 54.02 fg/troph and 67.93 fg/troph
